# Data as given in ChEMBL document CHEMBL1154822, “Synthesis and antiproliferative activity of 7-azaindirubin-3'-oxime, a 7-aza isostere of the natural indirubin pharmacophore” (J Nat Prod, 2009).
# What was measured:
# HCC 2998 = experiment: Cytotoxicity against human HCC2998 cells assessed as cell growth at 10 uM after 48 hrs by MTT assay; type: functional; conditions: HCC 2998, 48 h, read-out: Activity
# [1] = biological target: Glycogen synthase kinase-3 beta (Homo sapiens) (UniProt P49841); experiment: Inhibition of human GSK3-beta assessed as residual enzyme activity at 3 uM after 40 mins by scintillation counting
# Chain of Glycogen synthase kinase-3 beta (Homo sapiens) (P49841 whole entry, looked up): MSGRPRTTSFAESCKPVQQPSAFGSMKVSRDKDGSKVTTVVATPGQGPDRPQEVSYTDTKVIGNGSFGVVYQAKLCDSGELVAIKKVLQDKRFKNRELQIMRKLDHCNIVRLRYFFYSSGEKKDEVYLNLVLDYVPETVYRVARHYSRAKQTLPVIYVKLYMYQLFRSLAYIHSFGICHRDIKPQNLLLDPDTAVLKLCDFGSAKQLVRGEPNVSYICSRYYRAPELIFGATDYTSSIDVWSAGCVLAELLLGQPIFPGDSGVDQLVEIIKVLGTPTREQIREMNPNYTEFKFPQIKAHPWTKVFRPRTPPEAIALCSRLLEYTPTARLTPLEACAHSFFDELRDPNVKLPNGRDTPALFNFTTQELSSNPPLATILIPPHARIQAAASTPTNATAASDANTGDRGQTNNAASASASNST
# SF-268 [2] = experiment: Cytotoxicity against human SF268 cells assessed as cell growth at 100 uM after 1 to 11 days by MTT assay; type: functional; conditions: read-out: Activity
# HOP-92 = experiment: Cytotoxicity against human HOP92 cells assessed as cell growth at 1 mM after 1 to 11 days by MTT assay; type: functional; conditions: read-out: Activity
# TK-10 [3] = experiment: Cytotoxicity against human TK10 cells assessed as cell growth at 1 uM after 1 to 11 days by MTT assay; type: functional; conditions: read-out: Activity
# A498 [4] = experiment: Cytotoxicity against human A498 cells assessed as cell growth at 1 mM after 1 to 11 days by MTT assay; type: functional; conditions: read-out: Activity
# SNB-75 [5] = experiment: Cytotoxicity against human SNB75 cells after 1 to 11 days by MTT assay; type: functional
# UO-31 [6] = experiment: Cytotoxicity against human UO31 cells assessed as cell growth at 0.1 uM after 1 to 11 days by MTT assay; type: functional; conditions: read-out: Activity
# SNB-19 = experiment: Cytotoxicity against human SNB19 cells assessed as cell growth at 1 mM after 1 to 11 days by MTT assay; type: functional; conditions: read-out: Activity
# SN12C = experiment: Cytotoxicity against human SN12C cells assessed as cell growth at 1 mM after 1 to 11 days by MTT assay; type: functional; conditions: read-out: Activity
# RPMI-8226 = experiment: Cytotoxicity against human RPMI8226 cells after 1 to 11 days by MTT assay; type: functional
# SF-268 [7] = experiment: Cytotoxicity against human SF268 cells assessed as cell growth at 1 uM after 1 to 11 days by MTT assay; type: functional; conditions: read-out: Activity
# NCI-H322M = experiment: Cytotoxicity against human NCI-H322M cells assessed as cell growth at 0.1 uM after 1 to 11 days by MTT assay; type: functional; conditions: read-out: Activity
# ACHN [8] = experiment: Cytotoxicity against human ACHN cells assessed as cell growth at 10 uM after 1 to 11 days by MTT assay; type: functional; conditions: read-out: Activity
# A549 = experiment: Cytotoxicity against human A549 cells assessed as cell growth at 100 uM after 1 to 11 days by MTT assay; type: functional; conditions: read-out: Activity
# OVCAR-5 = experiment: Cytotoxicity against human OVCAR5 cells assessed as cell growth at 1 uM after 1 to 11 days by MTT assay; type: functional; conditions: read-out: Activity
# OVCAR-3 = experiment: Cytotoxicity against human OVCAR-3 cells assessed as cell growth at 1 uM after 1 to 11 days by MTT assay; type: functional; conditions: read-out: Activity
# UO-31 [9] = experiment: Cytotoxicity against human UO31 cells assessed as cell growth at 100 uM after 1 to 11 days by MTT assay; type: functional; conditions: read-out: Activity
# LOX IMVI = experiment: Cytotoxicity against human LOXIMVI cells after 1 to 11 days by MTT assay; type: functional
# SNB-75 [10] = experiment: Cytotoxicity against human SNB75 cells assessed as cell growth at 0.1 uM after 1 to 11 days by MTT assay; type: functional; conditions: read-out: Activity
# SNB-75 [11] = experiment: Cytotoxicity against human SNB75 cells assessed as cell growth at 1 mM after 1 to 11 days by MTT assay; type: functional; conditions: read-out: Activity
# HOP-62 = experiment: Cytotoxicity against human HOP62 cells assessed as cell growth at 10 uM after 1 to 11 days by MTT assay; type: functional; conditions: read-out: Activity
# NCI-H23 = experiment: Cytotoxicity against human NCI-H23 cells assessed as cell growth at 1 uM after 1 to 11 days by MTT assay; type: functional; conditions: read-out: Activity
# RXF 393 = experiment: Cytotoxicity against human […] cells assessed as cell growth at 1 mM after 1 to 11 days by MTT assay; type: functional; conditions: read-out: Activity
# BT-549 = experiment: Cytotoxicity against human BT549 cells assessed as cell growth at 0.1 uM after 1 to 11 days by MTT assay; type: functional; conditions: read-out: Activity
# Malme-3M = experiment: Cytotoxicity against human MALME-3M cells assessed as cell growth at 100 uM after 1 to 11 days by MTT assay; type: functional; conditions: read-out: Activity
# TK-10 [12] = experiment: Cytotoxicity against human TK10 cells assessed as cell growth at 10 uM after 1 to 11 days by MTT assay; type: functional; conditions: read-out: Activity
# T47D [13] = experiment: Cytotoxicity against human T47D cells after 1 to 11 days by MTT assay; type: functional
# MOLT-4 = experiment: Cytotoxicity against human MOLT4 cells assessed as cell growth at 0.1 uM after 1 to 11 days by MTT assay; type: functional; conditions: read-out: Activity
# NCI-H460 = experiment: Cytotoxicity against human NCI-H460 cells assessed as cell growth at 1 mM after 1 to 11 days by MTT assay; type: functional; conditions: read-out: Activity
# SW-620 = experiment: Cytotoxicity against human SW620 cells assessed as cell growth at 1 uM after 1 to 11 days by MTT assay; type: functional; conditions: read-out: Activity
# ACHN [14] = experiment: Cytotoxicity against human ACHN cells assessed as cell growth at 0.1 uM after 1 to 11 days by MTT assay; type: functional; conditions: read-out: Activity
# DU-145 [15] = experiment: Cytotoxicity against human DU145 cells assessed as cell growth at 100 uM after 1 to 11 days by MTT assay; type: functional; conditions: read-out: Activity
# HL-60(TB) [16] = experiment: Cytotoxicity against human HL-60(TB) cells assessed as cell growth at 1 mM after 1 to 11 days by MTT assay; type: functional; conditions: read-out: Activity
# TK-10 [17] = experiment: Cytotoxicity against human TK10 cells assessed as cell growth at 0.1 uM after 1 to 11 days by MTT assay; type: functional; conditions: read-out: Activity
# MDA-MB-231 = experiment: Cytotoxicity against human MDA-MB-231 cells after 1 to 11 days by MTT assay; type: functional
# [18] = Cytotoxicity against human Hs 578T cells assessed as cell growth at 1 mM after 1 to 11 days by MTT assay; type: functional; conditions: read-out: Activity
# HL-60(TB) [19] = experiment: Cytotoxicity against human HL-60(TB) cells assessed as cell growth at 0.1 uM after 1 to 11 days by MTT assay; type: functional; conditions: read-out: Activity
# M14 = experiment: Cytotoxicity against human M14 cells assessed as cell growth at 10 uM after 1 to 11 days by MTT assay; type: functional; conditions: read-out: Activity
# SK-MEL-5 = experiment: Cytotoxicity against human SK-MEL-5 cells assessed as cell growth at 1 mM after 1 to 11 days by MTT assay; type: functional; conditions: read-out: Activity
# DU-145 [20] = experiment: Cytotoxicity against human DU145 cells assessed as cell growth at 0.1 uM after 1 to 11 days by MTT assay; type: functional; conditions: read-out: Activity
# T47D [21] = experiment: Cytotoxicity against human T47D cells assessed as cell growth at 1 uM after 1 to 11 days by MTT assay; type: functional; conditions: read-out: Activity
# A498 [22] = experiment: Cytotoxicity against human A498 cells assessed as cell growth at 1 uM after 1 to 11 days by MTT assay; type: functional; conditions: read-out: Activity
# [23] = Cytotoxicity against human Hs 578T cells assessed as cell growth at 0.1 uM after 1 to 11 days by MTT assay; type: functional; conditions: read-out: Activity
# [24] = read-out: LC50 (the source's name)
smiles,measurement,setting,value
O=C1Nc2ncccc2/C1=C1/Nc2ccccc2C1=O,growth at 10 µM,HCC 2998,25.3%
O=C1Nc2ncccc2/C1=C1/Nc2ccccc2/C1=N\O,Activity,[1],18%
same,growth at 100 µM,SF-268 [2],54%
same,growth at 1000 µM,HOP-92,44%
same,growth at 1 µM,TK-10 [3],104%
same,growth at 1000 µM,A498 [4],43%
same,GI50,SNB-75 [5],3.13 µM
same,TGI,SNB-75 [5],> 100 µM
same,CC50,SNB-75 [5]; [24],> 100 µM
same,growth at 0.1 µM,UO-31 [6],85%
same,growth at 1000 µM,SNB-19,83%
same,growth at 1000 µM,SN12C,36%
same,GI50,RPMI-8226,1890 nM
same,TGI,RPMI-8226,62.5 µM
same,CC50,RPMI-8226; [24],> 100 µM
same,growth at 1 µM,SF-268 [7],99%
same,growth at 0.1 µM,NCI-H322M,95%
same,growth at 10 µM,ACHN [8],72%
same,growth at 100 µM,A549,15%
same,growth at 1 µM,OVCAR-5,89%
same,growth at 1 µM,OVCAR-3,93%
same,growth at 100 µM,UO-31 [9],3%
same,GI50,LOX IMVI,5.17 µM
same,TGI,LOX IMVI,> 100 µM
same,CC50,LOX IMVI; [24],> 100 µM
same,growth at 0.1 µM,SNB-75 [10],84%
same,growth at 1000 µM,SNB-75 [11],19%
same,growth at 10 µM,HOP-62,105%
same,growth at 1 µM,NCI-H23,90%
same,growth at 1000 µM,RXF 393,7%
same,growth at 0.1 µM,BT-549,89%
same,growth at 100 µM,Malme-3M,13%
same,growth at 10 µM,TK-10 [12],91%
same,GI50,T47D [13],2030 nM
same,TGI,T47D [13],> 100 µM
same,CC50,T47D [13]; [24],> 100 µM
same,growth at 0.1 µM,MOLT-4,92%
same,growth at 1000 µM,NCI-H460,32%
same,growth at 1 µM,SW-620,94%
same,growth at 0.1 µM,ACHN [14],102%
same,growth at 100 µM,DU-145 [15],39%
same,growth at 1000 µM,HL-60(TB) [16],7%
same,growth at 0.1 µM,TK-10 [17],101%
same,GI50,MDA-MB-231,5.28 µM
same,TGI,MDA-MB-231,> 100 µM
same,CC50,MDA-MB-231; [24],> 100 µM
same,growth at 1000 µM,[18],31%
same,growth at 0.1 µM,HL-60(TB) [19],103%
same,growth at 10 µM,M14,86%
same,growth at 1000 µM,SK-MEL-5,30%
same,growth at 0.1 µM,DU-145 [20],102%
same,growth at 1 µM,T47D [21],86%
same,growth at 1 µM,A498 [22],85%
same,growth at 0.1 µM,[23],97%
